Source: article PMC11352469, “Comprehensive Analysis of Kisspeptin Signaling: Effects on Cellular Dynamics in Cervical Cancer” (Biomolecules, 2024)
Each block holds one molecule with its values, some of them ahead of it. Residues, ends and D or L forms follow the SMILES beside them.

Experiments:
[1] = system: HeLa cells; test: Cytotoxicity MTT assay, HeLa; assay type: cell-based, human; settings: 48 h
Protocol: (§1) Human cervical adenocarcinoma (HeLa) cells (cat# CRM-CCL-2) were obtained from the American Type Culture Collection (ATCC, Manassas, VA, USA). Human breast adenocarcinoma (MCF7) cells, Human prostate adenocarcinoma (PC3) cells, Human gastric adenocarcinoma (AGS) cells and Human Embryonic Kidney cells (HEK293T) were kindly provided by the Universidad Industrial de Santander. HeLa, MCF7, and HEK293T cells were cultured in DMEM medium supplemented with 10% FBS (fetal bovine serum), 1% penicillin/streptomycin. PC3 and AGS cells were cultured in RPMI medium supplemented with 10% FBS, 1% penicillin/streptomycin. All cells were maintained at 37 °C and 5% CO2.
(§2) 15,000 cells per well were plated in 96-well plates (Greiner, Fisher Scientific, Waltham, MA, USA) using a fully complemented medium, and incubated at 37 °C. Following a 24 h period, cells underwent serum starvation before being treated with KP10 and its analogs at concentrations of 10, 100, 250, and 500 nM for 48 h. Subsequently, each well received 100 µL of MTT solution (0.5 mg/mL), and the plates were incubated at 37 °C for 3 h. After adding the MTT solvent and further incubation for 15 min, the resultant absorbance was measured at 590 nm using a BioTech RT-2100C microplate reader. Data analysis was performed using Prism 8.0 software (GraphPad).

[2] = system: PC3 cells; test: Cytotoxicity MTT assay, PC3; assay type: cell-based, human; settings: 48 h
Protocol: as §1, §2

[3] = molecular target: T1, kisspeptin receptor (Homo sapiens, UniProt Q969F8); test: BRET assay, Gz pathway; assay type: cell-based; parameters: expressed in transfected cells; host or cells: HeLa cells, transient transfection with PEI; settings: HeLa cells
Source text: The Bioluminescence Resonance Energy Transfer (BRET) assay was developed as described before. Briefly, HeLa cells were transiently transfected with these plasmids encoding for the GPCR, Gα subunit, the G protein effectors tagged with the BRET donor (RlucII), and the plasma membrane anchor (the CAAX motif from KRas, which includes a prenylation and a polybasic domain) fused to the BRET acceptor rGFP using Polietilendiimine (PEI) as described in Avet et al.. Fourty-eight hours post-transfection, cells were incubated with the coelenterazine substrate for Renilla luciferase Prolume Purple, stimulated with kisspeptin receptor agonists for 10 min and BRET signals were measured using a dual-filter luminometer (SPARK, Tecan Life Sciences, Männedorf, Switzerland). BRET ratios were calculated by dividing the acceptor emission by the donor emission, providing a quantitative measure for […]. Data were analyzed using Prism 8.0 (GraphPad) to determine interaction dynamics under various experimental conditions. The bias factor for the kisspeptin analogs was calculated using the operational model of agonism as described by Kenakin [31]. Emax and EC50 values were determined for each signaling pathway (e.g., G protein activation, β-arrestin recruitment). The data were then fitted to the operational model to estimate transduction coefficients (τ). The bias factor (ΔLog(τ/KA)) was calculated by comparing the τ/KA values for each pathway relative to a reference pathway. This method quantifies signaling bias by evaluating relative efficacy and potency across pathways. Statistical significance of the observed bias was assessed to ensure the differences were not due to random variation. All calculations and analyses were performed using GraphPad Prism software (GraphPad, San Diego, CA, USA).

[4] = system: AGS cells; test: In vitro wound healing assay, AGS; assay type: cell-based, human; settings: difference to control less marked
Protocol: (§3) Cells (3 × 10^5 cells/well) were seeded in 24-well plates for 24 h. Then, a sterile pipette tip of 20–200 μL was held vertically to create a cross-shaped scratch in each well. The detached cells were carefully removed by washing with 500 μL PBS and shaking at 500 rpm for 5 min. Then, 500 μL of medium containing the peptides to be tested was added to each well and incubated for 72 h. Prior taking each image, the plate was washed with 500 μL of PBS and gently shaken for 30 s. Then, 500 μL of medium containing the corresponding peptides was added to each well again and images were taken at 24 h intervals using a Primovert microscope at 4× magnification and 1/3700 s exposure time. Wound opening areas were obtained using Prism 8.0 software (GraphPad).

[5] = system: MCF7 cells; test: In vitro wound healing assay, MCF7; assay type: cell-based, human; settings: MCF7, particularly at 48 and 72 h
Protocol: as §3

[6] = molecular target: T1, kisspeptin receptor; test: BRET assay, G15 pathway; assay type: cell-based; parameters: expressed in transfected cells; host or cells: HeLa cells, transient transfection with PEI; settings: HeLa cells, G15 pathway
Source text: (§4) The Bioluminescence Resonance Energy Transfer (BRET) assay was developed as described before. Briefly, HeLa cells were transiently transfected with these plasmids encoding for the GPCR, Gα subunit, the G protein effectors tagged with the BRET donor (RlucII), and the plasma membrane anchor (the CAAX motif from KRas, which includes a prenylation and a polybasic domain) fused to the BRET acceptor rGFP using Polietilendiimine (PEI) as described in Avet et al.. Fourty-eight hours post-transfection, cells were incubated with the coelenterazine substrate for Renilla luciferase Prolume Purple, stimulated with kisspeptin receptor agonists for 10 min and BRET signals were measured using a dual-filter luminometer (SPARK, Tecan Life Sciences, Männedorf, Switzerland). BRET ratios were calculated by dividing the acceptor emission by the donor emission, providing a quantitative measure for […]. Data were analyzed using Prism 8.0 (GraphPad) to determine interaction dynamics under various experimental conditions.

[7] = molecular target: T1, kisspeptin receptor; test: BRET assay, β-arrestin2 recruitment; assay type: cell-based; parameters: expressed in transfected cells; host or cells: HeLa cells, transient transfection with PEI; settings: HeLa cells, β-arrestin2 recruitment
Source text: as §4

[8] = molecular target: T1, kisspeptin receptor; test: BRET assay, β-arrestin1 recruitment; assay type: cell-based; parameters: expressed in transfected cells; host or cells: HeLa cells, transient transfection with PEI; settings: HeLa cells, β-arrestin1 recruitment
Source text: as §4

[9] = system: PC3 cells; test: In vitro wound healing assay, PC3; assay type: cell-based, human; settings: PC3, difference to control less marked
Protocol: as §3

[10] = molecular target: T1, kisspeptin receptor; test: BRET assay, G14 pathway; assay type: cell-based; parameters: expressed in transfected cells; host or cells: HeLa cells, transient transfection with PEI; settings: HeLa cells, G14 pathway
Source text: as §4

[11] = molecular target: T1, kisspeptin receptor; test: BRET assay, G11 pathway; assay type: cell-based; parameters: expressed in transfected cells; host or cells: HeLa cells, transient transfection with PEI; settings: HeLa cells, G11 pathway
Source text: as §4

[12] = molecular target: T1, kisspeptin receptor; test: BRET assay, Gq pathway; assay type: cell-based; parameters: expressed in transfected cells; host or cells: HeLa cells, transient transfection with PEI; settings: HeLa cells, Gq pathway
Source text: as §4

[13] = system: HeLa cells; test: In vitro wound healing assay, HeLa; assay type: cell-based, human; settings: particularly at 48 and 72 h
Protocol: as §3

[14] = molecular target: T1, kisspeptin receptor
[15] = molecular target: T1, kisspeptin receptor; remark: listed apart in the source

T1 sequence (Q969F8 whole entry, the tested form may be a part): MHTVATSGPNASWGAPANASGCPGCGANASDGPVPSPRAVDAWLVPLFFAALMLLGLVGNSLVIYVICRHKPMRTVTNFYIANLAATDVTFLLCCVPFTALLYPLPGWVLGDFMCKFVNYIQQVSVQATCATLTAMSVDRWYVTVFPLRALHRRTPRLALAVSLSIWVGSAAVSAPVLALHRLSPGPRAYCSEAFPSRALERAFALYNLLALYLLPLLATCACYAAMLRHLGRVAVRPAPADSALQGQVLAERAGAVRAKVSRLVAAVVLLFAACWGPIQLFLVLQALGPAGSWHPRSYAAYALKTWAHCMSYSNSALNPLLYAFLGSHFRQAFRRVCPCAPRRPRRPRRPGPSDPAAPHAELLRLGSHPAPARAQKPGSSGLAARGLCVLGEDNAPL

Molecule: Ala^10-KP10: Tyr-Asn-Trp-Asn-Ser-Phe-Gly-Leu-Arg-Ala; KP10 Ala-scan analog (YNWNSFGLRA; printed: Tyr-Asn-Trp-Asn-Ser-Phe-Gly-Leu-Arg-Ala)
- pIC50 HeLa [1]: 2.493
- pIC50 PC3 [2]: 1.739

- Emax ([3]; Gz pathway, KP10 = 100%): 84.7%
- EC50 ([3]; Gz pathway, mean of 4 experiments, read-out: EC50(M) Gz): 1.1e-06 M
- EC50 ([3]; Gz pathway, read-out: pEC50 Gz (converted)): 9.12e-07 M
- Δ(logτ/KA) bias factor, Gαz pathway ([3]; operational model, KP10 as reference): −1.66
- Emax ([6]; KP10 = 100%): 101%
- EC50 ([6]; read-out: pEC50 G15 (converted)): 339 nM
- Emax ([7]; KP10 = 100%): 79%
- EC50 ([7]; mean of 4 experiments, read-out: EC50(M) β-arrestin2): 2.58e-06 M
- EC50 ([7]; read-out: pEC50 β-arrestin2 (converted)): 2.51e-06 M
- Emax ([8]; KP10 = 100%): 69.1%
- EC50 ([8]; mean of 4 experiments): 13000 nM
- Emax ([10]; KP10 = 100%): 97.7%
- EC50 ([10]; read-out: pEC50 G14 (converted)): 355 nM
- Emax ([11]; KP10 = 100%): 106%
- EC50 ([11]; read-out: pEC50 G11 (converted)): 447 nM
- EC50 [12]: 214 nM
- Emax ([12]; KP10 = 100%): 104%
Molecule: CC(C)C[C@H](NC(=O)CNC(=O)[C@H](Cc1ccccc1)NC(=O)[C@H](CO)NC(=O)[C@H](C)NC(=O)[C@H](Cc1c[nH]c2ccccc12)NC(=O)[C@H](CC(N)=O)NC(=O)[C@@H](N)Cc1ccc(O)cc1)C(=O)N[C@@H](CCCNC(=N)N)C(=O)N[C@@H](Cc1ccccc1)C(N)=O [Ala^4-KP10] (H-YNWASFGLRF-NH2; N-terminus assumed)
- migration inhibition (wound closure) [4]: more inhibitory treatment
- migration inhibition (wound closure) [5]: most pronounced effects
- migration inhibition (wound closure) [9]: more inhibitory treatment
- pIC50 PC3 [2]: 2.541
- migration inhibition (wound closure) [13]: most pronounced effects

- EC50 of Gαz pathway activation, effector-RlucII / rGFP-CAAX BRET biosensor in transfected HeLa cells, 10 min stimulation [14]: 1100 nM
- EC50 of β-arrestin1 recruitment, BRET biosensor in transfected HeLa cells [15]: 13000 nM
- EC50 of β-arrestin2 recruitment, BRET biosensor in transfected HeLa cells [15]: 2580 nM
Molecule: YNWASFGLRF [Ala^4-KP10]

- EC50 of Gαz pathway activation, effector-RlucII / rGFP-CAAX BRET biosensor in transfected HeLa cells, 10 min stimulation [14]: 646 nM
- EC50 of β-arrestin1 recruitment, BRET biosensor in transfected HeLa cells [15]: 1190 nM
- EC50 of β-arrestin2 recruitment, BRET biosensor in transfected HeLa cells [15]: 1430 nM
Molecule: YNANSFGLRF [Ala^3-KP10]
